Assay results reported in US20040242579A1, “Triazine derivatives and their use as sunscreens” (priority 2001, published 2004).

Assay: UV absorption (λmax, molar extinction ε, extinction value E 1%, 1 cm) of the triazine UV filters
Format: physicochemical
[1] = at λmax 320 nm, solvent not stated
[2] = second band at 224 nm, solvent not stated

Row | SMILES | E (1%, 1 cm) (at λmax, in ethanol) | ε (at λmax, in ethanol) [L/mol/cm] | λmax (in ethanol) [nm] | E (1%, 1 cm) (at λmax, in dioxane) | ε (at λmax, in dioxane) | λmax (in dioxane) [nm] | also measured
1 | CC1(C)CC(=O)C(=CNc2nc(NC=C3C(=O)CC(C)(C)CC3=O)nc(-c3ccccc3)n2)C(=O)C1 [Example 1] |  |  |  |  |  |  | E (=extinction value) (1%, 1 cm) [1]: 1045; ε [1]: 51000 L/mol/cm; λmax (main band, solvent not stated): 320 nm; E (1%, 1 cm) [2]: 732; ε [2]: 35700 L/mol/cm; γmax (second band, solvent not stated): 224 nm
2 | CC(=O)C(=CNc1nc(NC=C(C(C)=O)C(C)=O)nc(-c2ccccc2)n1)C(C)=O [Example 2] | 1053 | 42900 | 322 |  |  |  | 
3 | CC1(C)OC(=O)C(=CNc2nc(NC=C3C(=O)OC(C)(C)OC3=O)nc(-c3ccccc3)n2)C(=O)O1 [Example 3] |  |  |  | 1374 | 68000 L/mol/cm | 332 | 
4 | CCOC(=O)/C(=C\Nc1nc(N/C=C(\C(C)=O)C(=O)OCC)nc(-c2ccccc2)n1)C(C)=O [Example 4] | 983 | 46000 | 319 |  |  |  | 
5 | CCOC(=O)/C(=C\Nc1nc(N/C=C(\C(C)=O)C(=O)OCC)nc(N/C=C(\C(C)=O)C(=O)OCC)n1)C(C)=O [Example 5] |  |  |  | 1350 |  | 325 | 
6 | CC1(C)OC(=O)C(=CNc2nc(NC=C3C(=O)OC(C)(C)OC3=O)nc(NC=C3C(=O)OC(C)(C)OC3=O)n2)C(=O)O1 [Example 6] |  |  |  | 1053 | 61 956 | 326 | 
